In article PMC8252719, “Macrocyclic FKBP51 Ligands Define a Transient Binding Mode with Enhanced Selectivity” (Angewandte Chemie (International Ed. in English), 2021):
Read-outs that look alike come from different tables or passages of the source.

How the values were obtained:
[1] = molecular target: T1, FKBP51FK1 (Homo sapiens, UniProt Q13451); settings: values derived from literature; read-out: FKBP51FK1 K i; cited from earlier work
T1 sequence (Q13451 42-130 limits assumed): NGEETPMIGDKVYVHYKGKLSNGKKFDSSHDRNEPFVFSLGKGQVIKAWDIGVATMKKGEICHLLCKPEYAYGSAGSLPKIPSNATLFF
Text: Table 1 Affinities of the macrocycles with amino acid containing linker determined by a competitive fluorescence polarization assay. | column: FKBP51FK1 / K i [μM]^[a]

[2] = system: phorbol/ionomycin-induced IL8 secretion in Jurkat cells; test: immunostimulation/suppression assay in Jurkat cells (IL8 secretion); format: cell-based, human; settings: IL8 ELISA; for effect on phorbol/ionomycin-induced IL8 secretion (compound on its own): 50 ng/ml PMA and 750 ng/ml Ionomycin, six hours
Procedure: Importantly, unlike the pan‐selective FKBP ligand [4.3.1]16h ^[21]
5.1 Immunostimulation/suppression assays in JURKAT cells
Figure S6A. Cellular analysis of compound FK[431]-16h in Jurkat cells
150 000 Jurkat cells were seeded in a 96 well plate in 180 µl and treated for 30 minutes with 13d or FK[431]-16h at the indicated […]
Cells were pelleted and supernatant collected and stored at -80°C. The IL8 content in the s upernatant was determined using the human IL8/CXCL8 DuoSet Elisa kit (RndSystems) according to manufacturers instructions . The sample volume of supernatant was adapted to 150 µl. Optical density wa s assessed using a Tecan Spark.
(§1) 5.2 IKKα inhibition in SIM-A9 cells
(§2) Cell culture and treatments
(§3) Murine microglia SIM-A9 cells were cultured at 37 °C, 5% CO2 in Dulbecco's Modified Eagle Medium (DMEM) high glucose with GlutaMAX (Thermo Fisher Scientific, 10566016), supplemented with 1 mM sodium pyruvate (Thermo Fisher Scientific, 11360-070), 10% fetal bovine serum (PAN Biotech, P30-8500), and 1% antibiotic-antimycotic (Thermo Fisher Scientific, 15240-062).
(§4) For the preparation of whole-cell lysates, confluent SIM-A9 cell cultures treated with the indicated compounds for 16 h in the above mentioned growth medium, were washed two times with ice-cold DPBS (Thermo Fisher Scientific, 14190-144) and lysed in an appropriate volume of RIPA buffer (Thermo Fisher Scientific, 89901), freshly supplemented with 1x cOmplete™ EDTA-free protease inhibitor cocktail (Roche, 4693132001) and 1x PhosSTOP™ phosphatase inhibitor cocktail (Roche, 4906837001) for 20 min on ice.
(§5) Subsequently, samples were centrifuged for 10 min at 4°C at 13000 rpm. The resulting supernatants were transferred to new 1.5 ml reaction tubes and prepared for separation with an SDS-PAGE system and analyzed by immunoblotting.
(§6) SDS-PAGE and immunoblotting
Separation of proteins was performed with the Criterion™ Vertical Electrophoresis Cell System (Bio-Rad, 1656001) on 4–20% Criterion™ TGX™ Precast Midi Protein Gels (Bio-Rad, 5671095). […]

[3] = molecular target: FKBP12.6 (Homo sapiens, UniProt P68106); test: competitive fluorescence polarization assay, FKBP12.6; format: binding; settings: for binding to FKBP12.6 (in words): fluorescence polarization assay
Sequence of FKBP12.6 (P68106 whole entry): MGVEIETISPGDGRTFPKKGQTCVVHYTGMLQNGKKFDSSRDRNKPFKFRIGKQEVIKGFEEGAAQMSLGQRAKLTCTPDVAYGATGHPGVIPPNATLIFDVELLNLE

[4] = molecular target: T1, FKBP51FK1; test: competitive fluorescence polarization assay, FKBP51FK1; format: binding
Procedure: Table S1. Ki values were determined by a competitive fluoresc ence polarization assay.
4.1 Binding curves of 13a, c and d […]

[5] = molecular target: FKBP12 (Homo sapiens, UniProt P62942); test: competitive fluorescence polarization assay, FKBP12; format: binding; settings: for binding to FKBP12 (in words): fluorescence polarization assay
Sequence of FKBP12 (P62942 whole entry): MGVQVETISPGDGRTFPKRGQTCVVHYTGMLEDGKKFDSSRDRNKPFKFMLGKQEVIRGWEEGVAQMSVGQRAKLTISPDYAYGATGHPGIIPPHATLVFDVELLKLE

[6] = molecular target: T2, FKBP52FK1 (Homo sapiens, UniProt Q02790); test: competitive fluorescence polarization assay, FKBP52FK1; format: binding; settings: Table 1 compounds tested up to 80 μM
T2 sequence (Q02790 50-138 limits assumed): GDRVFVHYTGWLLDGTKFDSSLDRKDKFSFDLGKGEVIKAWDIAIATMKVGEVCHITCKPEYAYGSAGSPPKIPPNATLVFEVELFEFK

[7] = molecular target: T1, FKBP51FK1; test: isothermal titration calorimetry (ITC); format: binding
Procedure: 1. ITC of compounds 13a and 13d
Figure S1. A) Binding of compound 13a to FKBP51FK1 determined by isothermal titration calorimetry at 25 °C. A 20 µM solution FKBP51FK1 formulated in 20 mM
HEPES pH 8.0, 20 mM NaCl, 5% glycerol and 2% DMSO was placed in the sample cell of a PEAK-ITC instrument. The syringe was filled with a 200 µM solution of
13a formulated in the same buffer. After equilibration the compound was titrated into the sample cell by 12 injection s of 3 µl each. The obtained data was analyzed
Binding of compound 13d to FKBP51FK1 determined by isothermal titration calorimetry at 25 °C. A 13 µM solution FKBP51FK1 formulated in 20 mM HEPES pH
8.0, 20 mM NaCl, 5% glycerol and 2% DMSO was placed in the sample cell of a PEAK -ITC instrument. The syringe was filled with a 10 0 µM solution of 13d
formulated in the same buffer. After equilibration the compound was titrated into the sample cell by 12 injections of 3 µl each. The obtained data was analyzed using […]

[8] = system: IKKα phosphorylation in SIM-A9 cells; test: IKKα inhibition in SIM-A9 cells (Western blot); format: cell-based, murine
Procedure: We next explored if the macrocyclic ligands could interfere with the cellular functions of FKBP51. We therefore treated SIM‐A9 cells, which were recently discovered as a SAFit‐sensitive cellular model for stress‐mediated secretory autophagy. ^[24] […] (Figure 2 F and S6C). […]
as §1, §2, §3, §4, §5, §6
Separation of proteins was performed with the Criterion™ Vertical Electrophoresis Cell System (Bio-Rad, 1656001) on 4–20% Criterion™ TGX™ Precast Midi Protein Gels (Bio-Rad, 5671095). Immunoblotting was performed with the Trans-Blot Turbo Transfer System (Bio-Rad, 1704150) on 0.2 µm PVDF Trans-Blot Turbo Transfer Membranes (Bio-Rad, 1704157). For immunodetection, membranes were placed in TBS, supplemented with 0.05% Tween (Sigma-Aldrich, P9416) and 5% non-fat milk (Carl Roth, T145.1) for 1 h at RT and then incubated with the primary antibody diluted in TBS-T overnight at 4°C. Following primary antibodies were used:
Phospho-IKKα S176/phospho-IKKβ S177 (1:1000, Cell Signaling Technology, 2078), IKKα (1:1000, Cell Signaling Technology, 1682) and GAPDH (1:1000, Cell Signaling Techology, 5174).
Then, immunoblots were washed and probed with horseradish peroxidase- conjugated secondary antibody (1:10000, Cell Signaling Technology, 7074) for 1 h at RT. Immunoreactive protein bands were visualized using Clarity Western ECL Substrate (Bio-Rad, 1705061) or Clarity Max Western ECL Substrate (Bio-Rad, 1705062). Determination of the band intensities was performed with […]

[9] = meta B ring substituent R6, read-out: FKBP51 Ki (Table S1)

SMILES	Ki [1] [nM]	effect on phorbol/ionomycin-induced IL8 secretion (compound on its own) [2]	binding to FKBP12.6 (in words) [3]	Ki [4, 9] [nM]	binding to FKBP12 (in words) [5]	binding to FKBP52FK1 (in words) [6]	Ki ([3]; competitive fluorescence polarization assay, >80 μM = highest measurable concentration before compound precipitation, ± = standard error from three independent measurements, read-out: FKBP12.6 K i) [nM]	effect on the immunosuppressive activity of FK506 ([2]; 30 minutes pretreatment, then 0.2 nM FK506, PMA/Ionomycin)	Ki ([4]; ± = standard error from three independent measurements [b] or error from two independent measurements [d], SEM, read-out: FKBP51FK1 K i) [nM]	Ki ([5]; competitive fluorescence polarization assay, >80 μM = highest measurable concentration before compound precipitation, ± = standard error from three independent measurements, read-out: FKBP12 K i) [nM]	Kd ([7]; 25 °C, 20 mM HEPES pH 8.0, 20 mM NaCl, 5% glycerol, 2% DMSO, one-site binding model, mean ± SD from 3 independent experiments, SD, read-out: Kd-value for FKBP51FK1 by ITC) [nM]	Kd ([7]; isothermal calorimetry, enthalpy-driven, read-out: K d for FKBP51 by ITC) [nM]	concentration at which apparent maximal inhibition of IKKα phosphorylation was already reached ([8]; SIM-A9 cells, lowest tested concentration) [µM]	inhibition of IKKα phosphorylation (in words) ([8]; murine microglia SIM-A9 cells, 16 h treatment, Western blot, three (macrocycles) or six (SAFit) independent cellular assays)
C=CC[C@@H]1/C=C(\C)C[C@H](C)C[C@H](OC)[C@H]2O[C@@](O)(C(=O)C(=O)N3CCCC[C@H]3C(=O)O[C@H](/C(C)=C/[C@@H]3CC[C@@H](O)[C@H](OC)C3)[C@H](C)[C@@H](O)CC1=O)[C@H](C)C[C@@H]2OC [FK506, reference compound]	104	blocks												
COc1cc2cc(c1)[C@@H](CCc1ccc(OC)c(OC)c1)OC(=O)[C@@H]1CCCCN1C(=O)[C@@H](C1CCCCC1)NC(=O)C(C)(C)NC(=O)CO2 [compound 26]			no binding	390	no binding	no binding								
COc1ccc(CC[C@H]2OC(=O)[C@@H]3CCCCN3C(=O)[C@@H](C3CCCCC3)NC(=O)C(C)(C)NC(=O)COc3cc(O)cc2c3)cc1OC [compound 25]			no binding	370	no binding	no binding								
COc1ccc(CC[C@H]2OC(=O)[C@@H]3CCCCN3C(=O)[C@@H](C3CCCCC3)NC(=O)C3(CC3)NC(=O)COc3cccc2c3)cc1OC [13 d]		neither immunostimulatory nor immunosuppressive		290			> 80000	did not block	400 ± 50	> 80000	600 ± 100	600	≤ 1	inhibited
